Assay: solvent given as SMILES

SMILES: C(=C\c1ccc(-c2cccc3ccccc23)s1)/c1cccs1
- emission maximum (in ClCCl): 453 nm

SMILES: CC1(C)CC[N+]2=c3c(cc4c(c31)Oc1cc3c(cc1C=4c1ccccc1C(=O)O)C(c1ccccc1C(=O)O)=c1cc4c5c(c1O3)C(C)(C)CC[N+]=5CCC4)CCC2
- emission maximum (in ClC(Cl)Cl): 635 nm

SMILES: CCCCCCn1c2ccccc2c2cc(-c3ccc(-c4cc(-c5ccccn5)nc(-c5ccccn5)c4)cc3)ccc21
- emission maximum (in ClCCl): 447 nm

SMILES: CC(=O)c1c(N[C@@H](CS)C(=O)O)c2ccc(N(C)C)cc2oc1=O
- emission maximum (in ClCCl): 424 nm

SMILES: O=C(O)C1=C/C(=C/C=[N+]2/c3cc(O)c(C[C@@H]4O[C@H](CO)[C@@H](O)C(O)[C@H]4O)cc3C[C@H]2C(=O)O)C[C@H](C(=O)O)N1 (stereo partly drawn)
- emission maximum (in CO): 611 nm
- emission maximum (in O): 641 nm
- emission maximum (in OCCO): 608 nm
- emission maximum (in [2H]O[2H]): 641 nm

SMILES: CN(C)c1cc2c(cc1F)c(=O)c1cc(F)c(N(C)C)cc1n2C
- emission maximum (in CCO): 441 nm

SMILES: CCN(CC)c1ccc2cc(-c3ccc(-c4ccc5c6ccccc6c6c7cc(-c8ccc(-c9cc%10ccc(N(CC)CC)cc%10oc9=O)cc8)ccc7c7ccccc7c6c5c4)cc3)c(=O)oc2c1
- emission maximum (in ClC(Cl)Cl): 482 nm

SMILES: O=C1/C(=C2\Nc3cc4ccc5cccc6ccc(c3C2=O)c4c56)Nc2cc3ccc4cccc5ccc(c21)c3c45
- emission maximum (in C1CCOC1): 707 nm

SMILES: c1ccc2c(c1)Cc1c-2sc2c1Cc1ccccc1-2
- emission maximum (in C1CCOC1): 385 nm

SMILES: Cn1c2cc(N3CCCCC3)c(F)cc2c(=O)c2cc(F)c(N3CCCCC3)cc21
- emission maximum (in CCO): 455 nm

SMILES: Cc1cc2cc(C)c3c4ccccc4[nH]c3c2o1
- emission maximum (in ClCCl): 338 nm

SMILES: Cc1cc(C)c(B(c2cc3c4c(c(B(c5c(C)cc(C)cc5C)c5c(C)cc(C)cc5C)cc5c4c2CCC5)CCC3)c2c(C)cc(C)cc2C)c(C)c1
- emission maximum (in C1CCOC1): 464.54 nm
- emission maximum (in CC#N): 465.9 nm
- emission maximum (in CCCCCC): 456 nm

SMILES: CC(=O)c1c(N[C@@H](CC(C)C)C(=O)O)c2ccc(N(C)C)cc2oc1=O
- emission maximum (in ClCCl): 446 nm

SMILES: Oc1ccccc1/C=N/N=C/c1ccccc1O
- emission maximum (in CC#N): 588.24 nm
- emission maximum (in CC(C)CCCC(C)CCCC(C)CCCCC(C)CCCC(C)CCCC(C)C): 583.09 nm
- emission maximum (in CCCCCC): 578.03 nm
- emission maximum (in CCCCCCCCC): 581.4 nm
- emission maximum (in CCCCCCCCCCCCCCCC): 581.4 nm
- emission maximum (in CCCCl): 584.8 nm
- emission maximum (in CCN(CC)CC): 576.37 nm
- emission maximum (in CCO): 579.71 nm
- emission maximum (in CCOCC): 588.24 nm
- emission maximum (in CO): 573.07 nm
- emission maximum (in OC(C(F)(F)F)C(F)(F)F): 571.43 nm
- emission maximum (in OCC(F)(F)F): 573.07 nm
- emission maximum (in OCCO): 584.8 nm

SMILES: C(#Cc1ccc2c(c1)c1cc(C#Cc3ccccc3)ccc1n2-c1cc2ccccc2c2ccccc12)c1ccccc1
- emission maximum (in ClCCl): 392 nm

SMILES: CCCCn1c2ccccc2c2ccc3c4cc(-c5ccc6ccccc6c5)ccc4n(CCCC)c3c21
- emission maximum (in ClC(Cl)Cl): 410 nm

SMILES: CCN(CC)c1c2ccc(=[N+]3CCCCC3)cc-2oc2cc(N3CCCCC3)ccc12
- emission maximum (in ClCCl): 558 nm

SMILES: Cc1ccc(N(c2ccc(C)cc2)c2ccc(-c3ccc(C=C(C#N)C#N)s3)cc2)cc1
- emission maximum (in ClC(Cl)Cl): 670 nm

SMILES: CC(C)(C)c1ccc2c(c1)sc1[n+]2[B-](F)(F)n2c(c3cccc4c(Br)ccc2c43)=C1C#N
- emission maximum (in C1CCOC1): 563 nm
- emission maximum (in CC#N): 558 nm
- emission maximum (in CCCCCC): 558 nm
- emission maximum (in Cc1ccccc1): 563 nm
- emission maximum (in ClCCl): 560 nm

SMILES: COc1cc(C(=O)c2c(C)c3ccc4cccc5c6cccc7ccc2c(c76)c3c45)cc(OC)c1OC
- emission maximum (in ClCCl): 456 nm

SMILES: CC(C)(C)c1ccc2c(c1)c1cc(C(C)(C)C)ccc1n2-c1ccc(S(=O)(=O)c2ccc(S(=O)(=O)c3ccc(-n4c5ccc(C(C)(C)C)cc5c5cc(C(C)(C)C)ccc54)cc3)cc2)cc1
- emission maximum (in Cc1ccccc1): 446 nm

SMILES: CCC1=C(C)C(=O)n2c1cc1c(CCC(=O)O)c(C)c(C)n1c2=O
- emission maximum (in CO): 540 nm
- emission maximum (in CS(C)=O): 510 nm
- emission maximum (in ClC(Cl)Cl): 500 nm
- emission maximum (in c1ccccc1): 470 nm

SMILES: O=c1c2ccccc2c2c(C#C[Si](c3ccccc3)(c3ccccc3)c3ccccc3)c3c(=O)c4ccccc4c3c(C#C[Si](c3ccccc3)(c3ccccc3)c3ccccc3)c12
- emission maximum (in ClC(Cl)Cl): 570 nm

SMILES: CN(C)c1ccc(-c2cc3c(ccc4c([N+](=O)[O-])cccc43)c(=O)o2)cc1
- emission maximum (in CC(C)=O): 530 nm
- emission maximum (in CCOC(C)=O): 624 nm
- emission maximum (in CN(C)C=O): 546 nm
- emission maximum (in CO): 548 nm
- emission maximum (in ClC(Cl)Cl): 634 nm

SMILES: CN1C(=CC2=C([S-])C(=CC3=[N+](C)c4ccccc4C3(C)C)C2=O)C(C)(C)c2ccccc21
- emission maximum (in ClC(Cl)Cl): 663 nm

SMILES: CCC(C)(C)c1ccc2c(c1)C(CCOC)(CCOC)c1cc(-c3ccc(-c4ccc5c(c4)C(CCOC)(CCOC)c4cc(C(C)(C)CC)ccc4-5)cc3)ccc1-2
- emission maximum (in C1CCCCC1): 380 nm

SMILES: CCCCCCN1C(=O)c2cccc3c(-c4ccc(OC)s4)ccc(c23)C1=O
- emission maximum (in ClC(Cl)Cl): 503 nm

SMILES: O=C(O)CC[N+]1=c2cc3c(cc2CCC1)=Cc1c(c2cc4c5c(c2oc1=O)CCCN5CCC4)O3
- emission maximum (in CC#N): 683 nm
- emission maximum (in CO): 679 nm
- emission maximum (in ClCCl): 675 nm
- emission maximum (in O): 684 nm

SMILES: c1ccc(-n2c(-c3cccc4ccccc34)nc3c4ccccc4c4ccccc4c32)cc1
- emission maximum (in C1CCOC1): 413.91 nm
- emission maximum (in CCCCCC): 384 nm
- emission maximum (in CS(C)=O): 423 nm
- emission maximum (in Cc1ccccc1): 410 nm
- emission maximum (in ClCCl): 415.6 nm

SMILES: O=C(O)CCCOc1cccc(-c2c3nc(cc4ccc([nH]4)c(-c4cccc(OCCCC(=O)O)c4)c4nc(cc5ccc2[nH]5)CC4)C=C3)c1
- emission maximum (in CS(C)=O): 649 nm

SMILES: CCCCC(CC)COc1ccc2nc(-c3ccc(-c4ccccc4)s3)sc2c1 (stereo not drawn)
- emission maximum (in ClCCl): 423 nm

SMILES: Cc1cc2ccc(-c3cccc4cccc(-c5ccc6cc(C)c(=O)oc6c5)c34)cc2oc1=O
- emission maximum (in C1CCCCC1): 392 nm
- emission maximum (in C1COCCO1): 399 nm
- emission maximum (in CC#N): 420 nm
- emission maximum (in CCO): 442 nm
- emission maximum (in CCOC(C)=O): 403 nm
- emission maximum (in CN(C)C=O): 417 nm
- emission maximum (in CO): 452 nm
- emission maximum (in c1ccccc1): 398 nm

SMILES: c1ccc(COc2cc(C[n+]3ccc(-c4cc[n+](Cc5cc(OCc6ccccc6)cc(OCc6ccccc6)c5)cc4)cc3)cc(OCc3ccccc3)c2)cc1
- emission maximum (in CC#N): 365 nm

SMILES: c1ccc(-c2c3ccccc3c(-c3cncnc3)c3ccccc23)cc1
- emission maximum (in CCO): 441 nm
- emission maximum (in ClCCl): 414 nm

SMILES: CCOC(=O)c1c(-c2c(Cl)c3cc(C)ccc3oc2=O)nn(-c2cccc(C)c2)c1C(=O)OCC
- emission maximum (in ClCCl): 418 nm

SMILES: CCCCCCCCOC(=O)c1ccc(-c2cc3ccc4cc(-c5ccc(C(=O)OCCCCCCCC)cc5)cc5ccc(c2)c3c45)cc1
- emission maximum (in Cc1ccccc1): 421 nm

SMILES: CC[n+]1c(-c2ccccc2)c2cc(NC(=O)N[C@H]3C[C@@H]([NH3+])[C@H](O)[C@@H](O)[C@@H]3O)ccc2c2ccc(NC(=O)N[C@@H]3C[C@H]([NH3+])[C@@H](O)[C@@H](O)[C@H]3O)cc21
- emission maximum (in O): 522 nm

SMILES: CC(C)c1cc(C(C)C)c(B2c3ccccc3Oc3cc(N4c5ccccc5C(C)(C)c5ccccc54)ccc32)c(C(C)C)c1
- emission maximum (in Cc1ccccc1): 475 nm

SMILES: CCN1\C(=C/C=C/C=C/C2=[N+](CC)c3ccc4cc(Br)ccc4c3C2(C)C)C(C)(C)c2c1ccc1cc(Br)ccc21
- emission maximum (in C1CCOC1): 709 nm
- emission maximum (in CC#N): 699 nm
- emission maximum (in CC(C)=O): 703 nm
- emission maximum (in CCO): 705 nm
- emission maximum (in CN(C)C=O): 705 nm
- emission maximum (in CO): 702 nm
- emission maximum (in CS(C)=O): 709 nm
- emission maximum (in ClCCl): 714 nm

SMILES: CN(C)c1ccc(/C=C/c2nc3ccc(N(C)C)cc3oc2=O)cc1
- emission maximum (in C1CCCCC1): 521 nm
- emission maximum (in C1COCCO1): 581 nm
- emission maximum (in CC#N): 650 nm
- emission maximum (in CC(C)=O): 626 nm
- emission maximum (in CC(O)CO): 649.5 nm
- emission maximum (in CCCCCCC): 519 nm
- emission maximum (in CCO): 666 nm
- emission maximum (in CCOC(C)=O): 587 nm
- emission maximum (in CN(C)C=O): 650 nm
- emission maximum (in CS(C)=O): 666 nm
- emission maximum (in Cc1ccccc1): 567 nm
- emission maximum (in ClC(Cl)Cl): 627 nm
- emission maximum (in ClCCl): 619 nm
- emission maximum (in OCC(O)CO): 659 nm

SMILES: c1ccc(-c2nc(-c3ccccc3)nc(-c3ccc(-n4c5ccccc5c5cc(-c6ccc7oc8ccccc8c7c6)ccc54)cc3)n2)cc1
- emission maximum (in CCOC(C)=O): 470 nm
- emission maximum (in CN(C)C=O): 526 nm
- emission maximum (in Cc1ccccc1): 433 nm

SMILES: COc1c2ccccc2c(OC)c2c(C#CC(C)(C)C)c3cc4sccc4cc3c(C#CC(C)(C)C)c12
- emission maximum (in ClCCl): 634 nm

SMILES: N#CC(C#N)=Cc1ccc(-c2ccc(N(c3ccccc3)c3ccccc3)cc2)o1
- emission maximum (in ClC(Cl)Cl): 618 nm

SMILES: c1csc(-c2ccc(-c3cccs3)c3nsnc23)c1
- emission maximum (in ClC(Cl)Cl): 565 nm

SMILES: CC1=CC(C)=[N+]2C1=Cc1c3ccccc3c(C#Cc3ccccc3)n1[B-]2(F)F
- emission maximum (in CCCCCC): 615 nm
- emission maximum (in CCCCCCCCO): 623 nm
- emission maximum (in CCOC(C)=O): 618 nm
- emission maximum (in CN(C)C=O): 624 nm
- emission maximum (in ClCCl): 629 nm

SMILES: FC(F)(F)c1ccc(B2c3ccccc3Nc3ccccc32)c(C(F)(F)F)c1
- emission maximum (in ClCCl): 407 nm

SMILES: C=CCOc1nnc(OCCC(F)(F)C(F)(F)C(F)(F)C(F)(F)C(F)(F)C(F)(F)C(F)(F)C(F)(F)F)nn1
- emission maximum (in ClCCl): 572 nm
- emission maximum (in OCC(F)(F)F): 560 nm

SMILES: NCCc1c[nH]c2ccc(O)cc12
- emission maximum (in CC#N): 332 nm
- emission maximum (in CC(C)O): 335 nm
- emission maximum (in CO): 334 nm
- emission maximum (in O): 337 nm

SMILES: Cc1ccc(/C2=c3\cc/c(o3)=C(\c3ccc(C)cc3)c3ccc([nH]3)-c3ccc4n3[B-](F)(F)[N+]3=C(C=CC3=C4c3cccs3)c3ccc2[nH]3)cc1
- emission maximum (in ClC(Cl)Cl): 722 nm

SMILES: N#CC(C#N)=C(/C=C/c1cn(-c2ccccc2)nc1-c1ccccc1)c1ccccc1
- emission maximum (in C1CCOC1): 459 nm
- emission maximum (in C1COCCO1): 461 nm
- emission maximum (in CCO): 497 nm
- emission maximum (in CCOC(C)=O): 487 nm
- emission maximum (in CN(C)C=O): 504 nm
- emission maximum (in CO): 496 nm
- emission maximum (in CS(C)=O): 509 nm
- emission maximum (in Cc1ccccc1): 460 nm
- emission maximum (in ClC(Cl)Cl): 488 nm
- emission maximum (in ClCCl): 489 nm

SMILES: CCCCCCCCCCCCCCn1c(-c2cc(-c3nc4ccc(C)cc4n3CCCCCCCCCCCCCC)cc(-c3nc4ccc(C)cc4n3CCCCCCCCCCCCCC)c2)nc2ccc(C)cc21
- emission maximum (in C1CCOC1): 368.6 nm
